This is an account of results in patent US20160346412A1, “A KIT FOR PREPARING A RADIOPHARMACEUTICAL” (THE SOUTH AFRICAN NUCLEAR ENERGY CORPORATION LIMITED, priority 2014, published 2016).

The structures appear in SMILES notation.

Data set [1] in a line: Stability of the ligand in water. In kind it is physicochemical. The note with it: free ligand versus metal-chelated ligand. As for the experimental part:
The production of kits of ECDG, a water labile ligand, is problematic as the normal kit procedure includes a lyophilisation step in the aqueous phase wherein the pure ligand active pharmaceutical ingredient (API) is dissolved in water/saline containing at least one each of a reducing agent, additive and buffer, distributed in vials and freeze dried. At the hospital the ^99mTc in saline is added to the kit and reconstituted. The ^99mTc is then chelated to the ECDG ligand and the ^99mTc-ECDG radiopharmaceutical is ready for injection.

The conditions of data set [2]: aqueous medium in the published syntheses; cited from earlier work.

On to `O=C(NC1C(O)O[C@H](CO)[C@@H](O)[C@@H]1O)C(CS)NCCN[C@@H](CS)C(=O)NC1C(O)O[C@H](CO)[C@@H](O)[C@@H]1O` (stereo partly drawn) [ECDG, ethylenedicysteine deoxyglucosamine], for which the stability in water result in data set [1] is listed as “breaks down in water almost immediately”. Also, in data set [2], the “sensitivity to air, light, water and temperature” value was “air, light, water and temperature sensitive”.
In the case of `O=C(NC1C(O)O[C@H](CO)[C@@H](O)[C@@H]1O)C1C[S][Tc]23(=[O])[S]C[C@@H](C(=O)NC4C(O)O[C@H](CO)[C@@H](O)[C@@H]4O)[N]2CC[N]13` (stereo partly drawn) [^99mTc-ECDG, ^99mTechnetium-ethylenedicysteine deoxyglucosamine], in data set [1], the stability in water result is “stable in water”.
